Results on 23 compounds are retold here after US5691373A, “Nonpeptide endothelin antagonists I” (Warner-Lambert Company, priority 1995, dated 1997).

Test [1] deals with T1, ETA (Oryctolagus cuniculus, UniProt A5A8K3).
T1 sequence (A5A8K3 21-427): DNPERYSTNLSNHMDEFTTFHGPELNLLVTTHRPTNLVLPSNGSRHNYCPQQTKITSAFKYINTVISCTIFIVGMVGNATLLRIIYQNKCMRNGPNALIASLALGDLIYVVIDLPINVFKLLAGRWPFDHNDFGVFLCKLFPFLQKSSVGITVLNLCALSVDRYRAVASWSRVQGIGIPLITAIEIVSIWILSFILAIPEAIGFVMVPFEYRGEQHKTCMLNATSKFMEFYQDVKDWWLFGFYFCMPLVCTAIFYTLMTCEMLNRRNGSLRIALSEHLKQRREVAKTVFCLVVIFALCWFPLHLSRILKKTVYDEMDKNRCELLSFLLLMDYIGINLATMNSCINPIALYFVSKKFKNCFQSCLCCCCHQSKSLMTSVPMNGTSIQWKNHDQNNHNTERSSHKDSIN
Description: VERA-A: antagonism of ET-1 stimulated vasoconstriction in the rabbit femoral artery (ETA). The following applies: ET-1, rabbit femoral artery; read-out: VERA-A pA2 (converted). Format: cell-based. The procedure:
Male New Zealand rabbits were killed by cervical dislocation and exsanguination. Femoral and pulmonary arteries were isolated, cleaned of connective tissue, and cut into 4-mm rings. The endothelium was denuded by placing the rings over hypodermic tubing (32 gauge for femoral rings and 28 gauge for pulmonary rings, Small Parts, Inc, Miami, Fla.) and gently rolling them. […] Resting tension was adjusted to 3.0 g for femoral and 4.0 g pulmonary arteries; the rings were left for 90 minutes to equilibrate.

Test [2] concerns the target T1, ETA. The following applies: for IC50: ERBA-A IC50, [125I]-ET-1, rabbit renal artery vascular smooth muscle cells; for inhibition at 10 µM: read-out: ERBA-A % inhibition.
Description: The cells used were rabbit renal artery vascular smooth muscle cells grown in a 48-well dish (1 cm^2) (confluent cells).
The growth media was Dulbecco's Modified Eagles/Ham's F12 which contained 10% fetal bovine serum and antibiotics (penicillin/streptomycin/fungizone).
Second, remove the assay buffers, place the dish on ice, and add 150 μL of cold assay buffer described above to each well. […] Next, place dish in a 37° C., water bath for about 2 hours and gently agitate the dish every 15 minutes. Discard the radioactive incubation mixture in the sink and wash wells 3 times with 1 mL of cold phosphate buffered saline.
The target in a further test is T2, ETB (Rattus norvegicus, UniProt P21451).
T2 sequence (P21451 27-442): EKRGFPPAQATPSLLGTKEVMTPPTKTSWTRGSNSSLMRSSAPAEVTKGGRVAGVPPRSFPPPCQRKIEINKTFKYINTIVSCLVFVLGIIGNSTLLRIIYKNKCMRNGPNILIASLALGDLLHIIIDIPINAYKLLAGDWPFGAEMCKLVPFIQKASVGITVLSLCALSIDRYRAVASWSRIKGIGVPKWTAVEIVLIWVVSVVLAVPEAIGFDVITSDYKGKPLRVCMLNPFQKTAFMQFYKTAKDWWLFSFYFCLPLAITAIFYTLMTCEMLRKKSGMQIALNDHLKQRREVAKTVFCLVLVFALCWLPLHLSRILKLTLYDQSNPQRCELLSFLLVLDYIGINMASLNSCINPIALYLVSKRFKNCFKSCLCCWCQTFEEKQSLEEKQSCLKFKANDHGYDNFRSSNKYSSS

On to `COc1ccc(C(=O)/C(Cc2ccccc2OC)=C(\C(=O)O)c2ccc3c(c2)OCO3)cc1`, for which the Kb at ETA [1] was 0.251 µM.

In the case of `O=C1OC(O)(c2ccc(Cl)cc2)C(Cc2ccsc2)=C1c1ccc2c(c1)OCO2` (stereo not drawn) [Example 48, 2(5H)-Furanone, 3-(1,3-benzodioxol-5-yl)-5-(4-chlorophenyl)-5-hydroxy-4-(3-thienylmethyl)-], the IC50 was 1.2 µM against ETA [2] and 6.2 µM at ETB. On the same counts, the results for `O=C1OC(O)(c2ccc(Cl)cc2)C(Cc2cccs2)=C1c1ccc2c(c1)OCO2` (stereo not drawn) [Example 35, 2(5H)-Furanone, 3-(1,3-benzodioxol-5-yl)-5-(4-chlorophenyl)-5-hydroxy-4-(2-thienylmethyl)-] are 1.1 µM and 3.3 µM.

For `CC(C)c1ccc(C2=C(Cc3ccc4ccccc4c3)C(O)(c3ccc(Cl)cc3)OC2=O)cc1` (racemic) [Example 41, 2(5H)-Furanone, 5-(4-chlorophenyl)-5-hydroxy-3-[4-(1-methylethyl)phenyl]-4-(2-naphthalenylmethyl)-, (±)-], at ETA [2], the inhibition at 10 µM was found to be 37%. On ETB, the IC50 worked out at 9 µM. Turning to `COc1ccc(C2(O)OC(=O)C(c3ccc4c(c3)OCO4)=C2Cc2ccc(Br)cc2)cc1` (stereo not drawn) [Example 83, 3-Benzo[1,3]dioxol-5-yl-4-(4-bromobenzyl)-5-hydroxy-5-(4-methoxyphenyl)-5H-furan-2-one], the values for the IC50 on ETA [2] and on ETB were 0.071 µM and 0.5 µM, respectively. For `COc1cccc(CC2=C(c3ccc4c(c3)OCO4)C(=O)OC2(O)c2ccc(Cl)cc2)c1` (stereo not drawn) [Example 47, 2(5H)-Furanone, 3-(1,3-benzodioxol-5-yl)-5-(4-chlorophenyl)-5-hydroxy-4-[(3-methoxyphenyl)methyl]-], in that order: 3.9 µM and 7.8 µM. On the same counts, the results for `O=C1OC(O)(c2ccc(Cl)cc2)C(Cc2ccc3c(c2)OCO3)=C1c1ccc2c(c1)OCO2` (racemic) [Example 46, 2(5H)-Furanone, 3-(1,3-benzodioxol-5-yl)-4-(1,3-benzodioxol-5-ylmethyl)-5-(4-chlorophenyl)-5-hydroxy-, (±)-] are 3.6 µM and 6.4 µM. On the same counts, the results for `COc1ccc(C2=C(Cc3ccccc3)C(O)(c3ccc(Cl)cc3)OC2=O)cc1OC` (racemic) [Example 67, 2(5H)-Furanone, 5-(4-chlorophenyl)-3-(3,4-dimethoxyphenyl)-5-hydroxy-4-(phenylmethyl)-, (±)-] are 7.1 µM and 6.3 µM. As to `O=C1OC(O)(c2ccc(Cl)cc2)C(Cc2ccccc2)=C1c1ccc(Cl)c(Cl)c1` (racemic) [Example 61, 2(5H)-Furanone, 5-(4-chlorophenyl)-3-(3,4-dichlorophenyl)-5-hydroxy-4-(phenylmethyl)-, (±)-], the concentration for half-maximal inhibition (IC50) on ETA [2] and at ETB was 11 µM each time. Consider `COc1ccc(C2=C(Cc3ccc(Cl)c(Cl)c3)C(O)(c3ccc(Cl)cc3)OC2=O)cc1OC` (racemic) [Example 73, 2(5H)-Furanone, 5-(4-chlorophenyl)-4-[(3,4-dichlorophenyl)methyl]-3-(3,4-dimethoxyphenyl)-5-hydroxy-, (±)-], for which the 50% inhibitory concentration (IC50) on ETA [2] is 21 µM; against ETB, 13 µM. As to `COc1ccc(C2(O)OC(=O)C(c3ccc4c(c3)OCO4)=C2Cc2ccc(SC)cc2)cc1` (stereo not drawn) [Example 236, 3-Benzo[1,3]dioxol-5-yl-5-hydroxy-5-(4-methoxyphenyl)-4-(4-methylsulfanylbenzyl)-5H-furan-2-one], on ETA [2], the midpoint of inhibition, the IC50, lay at 0.23 µM. The Kb at ETA [1] was 0.316 µM. Turning to `COc1ccc(C2=C(Cc3ccc(C(C)C)cc3)C(O)(c3ccc(Cl)cc3)OC2=O)cc1OC` (racemic) [Example 70, 2(5H)-Furanone, 5-(4-chlorophenyl)-3-(3,4-dimethoxyphenyl)-5-hydroxy-4-[[4-(1-methylethyl)phenyl]methyl]-, (±)-], the IC50 at ETA [2] is 9.3 µM; at ETB it was 15 µM.

On to `COc1ccc(C2(O)OC(=O)C(c3cc(OC)cc(OC)c3)=C2Cc2cccc(C=O)c2)cc1` (stereo not drawn) [Example 134, 3-[4-(3,5-Dimethoxyphenyl)-2-hydroxy-2-(4-methoxyphenyl)-5-oxo-2,5-dihydrof uran-3-ylmethyl]benzaldehyde], for which the results for the IC50 at ETA [2] and against ETB were 0.024 µM and 1.2 µM, respectively. On ETA [2], `COc1ccc(C2(O)OC(=O)C(c3ccc4c(c3)OCO4)=C2Cc2ccccc2)c(OC)c1` (stereo not drawn) [Example 241, 3-Benzo[1,3]dioxol-5-yl-4-benzyl-5-(2,4-dimethoxyphenyl)-5-hydroxy-5H-furan-2-one] displayed a 50% inhibitory concentration (IC50) of 0.035 µM. Besides, on ETA [1], the Kb is 0.631 µM. Consider `O=C1OC(O)(c2c(F)cccc2F)C(Cc2ccccc2)=C1c1ccc2c(c1)OCO2` (stereo not drawn) [Example 158, 3-Benzo[1,3]dioxol-5-yl-4-benzyl-5-(2,6-difluorophenyl)-5-hydroxy-5H-furan-2-one], for which the 50% inhibitory concentration (IC50) on ETA [2] came to 2.3 µM; against ETB, 21 µM. On the same counts, the results for `Cc1ccccc1C1(O)OC(=O)C(c2ccc3c(c2)OCO3)=C1Cc1ccccc1` (stereo not drawn) [Example 216, 3-Benzo[1,3]dioxol-5-yl-4-benzyl-5-hydroxy-5-o-tolyl-5H-furan-2-one] are 0.29 µM and 8 µM. For `O=C1OC(O)(c2ccc(Cl)cc2)C(Cc2ccc(Cl)cc2)=C1c1ccc2c(c1)OCO2` (stereo not drawn) [Example 31, 2(5H)-Furanone, 3-(1,3-benzodioxol-5-yl)-5-(4-chlorophenyl)-4-[(4-chlorophenyl)methyl]-5-hydroxy-], in that order: 9.9 µM and 9.1 µM.

`CN(C)c1ccc(CC2=C(c3ccc(Cl)c(Cl)c3)C(=O)OC2(O)c2ccc(Cl)cc2)cc1` (stereo not drawn) [Example 119, 5-(4-Chlorophenyl)-3-(3,4-dichlorophenyl)-4-(4-dimethylaminobenzyl)-5-hydroxy-5H-furan-2-one]: the half-inhibitory concentration (IC50) against ETA [2] came to 5.8 µM; against ETB, 4.1 µM. On the same counts, the results for `COc1ccc(C2(O)OC(=O)C(c3cccc(OC)c3)=C2Cc2ccccc2)cc1` (stereo not drawn) [Example 153, 4-Benzyl-5-hydroxy-5-(4-methoxyphenyl)-3-(3-methoxyphenyl)-5H-furan-2-one] are 0.36 µM and 2 µM.

For `CC(C)c1ccc(C2=C(Cc3ccccc3)C(O)(c3ccc(Cl)cc3)OC2=O)cc1` (racemic) [Example 4, 2(5H)-Furanone, 5-(4-chlorophenyl)-5-hydroxy-3-[4-(1-methylethyl)phenyl]-4-(phenylmethyl)- , (±)-], the inhibition at 10 µM turned out to be 34% at ETA [2] and 52% at ETB (read-out: ERBA-B % inhibition). `C=CCOc1cc(OC)ccc1C1(O)OC(=O)C(c2ccc3c(c2)OCO3)=C1Cc1ccccc1` (stereo not drawn) [Example 329, 3-Benzo[1,3]dioxol-5-yl-5-hydroxy-5-(2-allyloxy-4-methoxy-phenyl)-4-benzyl-5H-furan-2one]: the IC50 against ETA [2] and at ETB was 0.11 µM each time.

Regarding `Cn1cc(CC2=C(c3ccc4c(c3)OCO4)C(=O)OC2(O)c2ccc(Cl)cc2)c2ccccc21` (racemic) [Example 66, 2 (5H)-Furanone, 3-(1,3-benzodioxol-5-yl)-5-(4-chlorophenyl)-5-hydroxy-4-[(1-methyl-1H-indol-3-yl)methyl], (±)-], the values for the half-inhibitory concentration (IC50) on ETA [2] and against ETB were 2.4 µM and 7.4 µM, respectively. On the same counts, the results for `Cc1ccc(CC2=C(c3ccc4c(c3)OCO4)C(=O)OC2(O)c2ccc(Cl)cc2)cc1` (stereo not drawn) [Example 33, 2(5H)-Furanone, 3-(1,3-benzodioxol-5-yl)-5-(4-chlorophenyl)-5-hydroxy-4-[(4-methylphenyl)methyl]-] are 3.5 µM and 5.7 µM.
